Patent publication US5756145A, “Durable, Resilient and effective antimicrobial coating for medical devices and method of coating therefor” (priority 1995, dated 1998)
Structures can show the parent of a compound that is named as a salt.

What was measured:
[1] = system: bacterial and fungal organisms; conditions: cited from earlier work; for spectrum of antimicrobial activity / bacteriostatic/bactericidal nature: general statement; for effect of organic matter on effectiveness: organic matter such as blood
[2] = system: protein synthesis; conditions: general statement; cited from earlier work
[3] = cited from earlier work; for solubility in organic solvents: organic solvents/solutions
[4] = system: Candida albicans; experiment: zones of inhibition on agar plates, Candida albicans (Examples 1, 2, 5, 7); conditions: Init., triple layer, Table 7
Procedure: (§1) Selected single layer and triple layer coated cylinders were then placed on agar plates that had been freshly overlaid with one of the microorganisms shown below in Table 1.
(§2) The coated cylinders were then removed from the serum and placed on agar plates that had been freshly overlaid with one of the microorganisms shown below in Table 2.
(§3) The devices and coating solution were preheated to 45° C. After coating the devices were allowed to dry for about four hours. […] The devices were then allowed to dry for an additional two hours. The resilient coated layer was applied over the durable coated layer by dipping the devices for approximately 5-10 seconds in a collodion solution. The devices were then allowed to dry for an additional two hours. Selected coated devices were then incubated in human serum at 37° C. for one and three weeks.

[5] = system: Staph. epidermidis; experiment: zones of inhibition on agar plates, Staph. epidermidis (Examples 1, 2, 5, 7); conditions: S. epidermidis, Init., triple layer, Table 7
Procedure: as §1, §2, §3

[6] = system: Pseud. aeruginosa; experiment: zones of inhibition on agar plates, Pseud. aeruginosa (Examples 1, 2, 5, 7); conditions: P. aerug, Init., triple layer, Table 7
Procedure: as §1, §2, §3

[7] = system: Staphylococcus aureus; conditions: cited from earlier work
[8] = system: Pseudomonas aeruginosa; conditions: cited from earlier work
[9] = system: Candida albicans; conditions: cited from earlier work
[10] = light; cited from earlier work
[11] = system: Escherichia coli; conditions: cited from earlier work
[12] = system: bacterial DNA-dependent RNA polymerase; conditions: general statement; cited from earlier work

CC[C@H]1OC(=O)[C@H](C)[C@@H](O[C@H]2C[C@@](C)(OC)[C@@H](O)[C@H](C)O2)[C@H](C)[C@@H](O[C@@H]2O[C@H](C)C[C@H](N(C)C)[C@H]2O)[C@](C)(O)C[C@@H](C)C(=O)[C@H](C)[C@@H](O)[C@]1(C)O [Erythromycin]
spectrum of antimicrobial activity [1]: active against a variety of gram-positive and gram-negative bacteria | inhibition of protein synthesis [2]: inhibition of protein synthesis without affecting nucleic acid synthesis

CC1=CCC(C(C)(C)O)CC1 (stereo not drawn) [α-Terpineol, α-α-4-trimethyl-3-cyclohexine-1-methanol]
bacteriostatic/bactericidal nature [1]: bacteriostatic | spectrum of antimicrobial activity [1]: broad spectrum antimicrobial activity against gram-positive bacteria (such as staphylococci and Enterococcus species), gram-negative bacteria (such as Escherichia coli and Pseudomonas aeruginosa) and Candida species

Oc1c(Cl)cc(Cl)c(Cl)c1Cc1c(O)c(Cl)cc(Cl)c1Cl [Hexachlorophene]
bacteriostatic/bactericidal nature [1]: bacteriostatic | spectrum of antimicrobial activity [1]: active against staphylococci and other gram-positive bacteria | solubility in organic solvents [3]: soluble | solubility in water ([3]; water): soluble

CN(C)c1ccc(O)c2c1C[C@H]1C[C@H]3[C@H](N(C)C)C(O)=C(C(N)=O)C(=O)[C@@]3(O)C(O)=C1C2=O [Minocycline]
bacteriostatic/bactericidal nature [1]: primarily bacteriostatic | spectrum of antimicrobial activity [1]: active against a wide range of gram-negative and gram-positive organisms | inhibition of protein synthesis [2]: inhibiting protein synthesis

Cc1cc(O)cc(C)c1Cl [Chloroxylenol, 4-chloro, 3,5-dimethyl phenol]
spectrum of antimicrobial activity [1]: good antimicrobial activity against gram-positive bacteria and fungi, and fair activity against gram-negative bacteria | effect of organic matter on effectiveness [1]: minimally affected by organic matter | Zones of inhibition [4]: 28 m.m. | Zones of inhibition [5]: 32 m.m. | Zones of inhibition [6]: 13 m.m.

Cn1sccc1=O [Methylisothiazolone, 2-Methylisothiazolone Hydrochloride]
MIC [7]: 80 mg/L | bacteriostatic/bactericidal nature [1]: bacteriostatic | spectrum of antimicrobial activity [1]: broad spectrum antimicrobial activity | solubility in acetic acid ([3]; acetic acid (rifampin: acetic aqueous solutions)): not soluble | solubility in formic acid ([3]; formic acid): soluble | solubility in organic solvents [3]: soluble | MIC [8]: 80 mg/L | MIC [9]: 320 mg/L | photosensitivity [10]: photosensitive | MIC [11]: 40 mg/L

Cc1ccc(C(C)C)c(O)c1 [Thymol, 5-methyl-2 isopropyl phenol]
bacteriostatic/bactericidal nature [1]: bacteriostatic | spectrum of antimicrobial activity [1]: broad spectrum antimicrobial activity against gram-positive bacteria (such as staphylococci and Enterococcus species), gram-negative bacteria (such as Escherichia coli and Pseudomonas aeruginosa) and Candida species

[H]/N=C(\N/C(=N/[H])NCCCCCCNC(=N)NC(=N)Nc1ccc(Cl)cc1)Nc1ccc(Cl)cc1 [Chlorhexidine]
bacteriostatic/bactericidal nature [1]: very rapid bactericidal activity | spectrum of antimicrobial activity [1]: broad range of microorganisms, including gram-positive bacteria (such as staphylococci, Enterococcus species), gram-negative bacteria (such as Escherichia coli and Pseudomonas aeruginosa) and Candida species | effect of organic matter on effectiveness [1]: not affected by the presence of organic matter | Zones of inhibition [4]: 26 m.m. | Zones of inhibition [5]: 22 m.m. | Zones of inhibition [6]: 20 m.m.

CCOc1ccc2ccccc2c1C(=O)N[C@@H]1C(=O)N2[C@@H]1SC(C)(C)[C@@H]2C(=O)O [Nafcillin]
spectrum of antimicrobial activity [1]: effective against both penicillin-G-sensitive and penicillin-G-resistant strains of Staphylococcus aureus as well as against pneumococcus, beta-hemolytic streptococcus, and alpha streptococcus

CO[C@H]1/C=C/O[C@@]2(C)Oc3c(C)c(O)c4c(O)c(c(/C=N/N5CCN(C)CC5)c(O)c4c3C2=O)NC(=O)/C(C)=C\C=C\[C@H](C)[C@H](O)[C@@H](C)[C@@H](O)[C@@H](C)[C@H](OC(C)=O)[C@@H]1C [Rifampin]
bacteriostatic/bactericidal nature [1]: bactericidal | spectrum of antimicrobial activity [1]: broad spectrum activity against a wide range of gram-positive and gram-negative bacteria | inhibition of bacterial DNA-dependent RNA polymerase [12]: inhibits bacterial DNA-dependent RNA polymerase activity
